This note sets out measurements from patent US10981879B2, “Thioether triazolopyridine and triazolopyrimidine inhibitors of myeloperoxidase” (BRISTOL-MYERS SQUIBB COMPANY, priority 2014, dated 2021).

A value given as a limit tells only on which side of the number the result lay.

Test [1] concerns the target T1, myeloperoxidase (MPO) (Homo sapiens (Human), UniProt P05164). As to the kind of experiment: MPO peroxidation assay (Amplex Red). Type of test: biochemical. To be noted: Table 1. On the procedure:
MPO peroxidation activity was measured in 100 mM KPi (pH 7.4) by utilizing the non-fluorescent reagent Amplex Red (Invitrogen catalog #A12222) which can be oxidized to the highly fluorescent resorufin. Amplex Red is oxidized by the peroxidase action of MPO to resorufin. Reactions were carried out in 50 μL total volume by adding a 25 μL mixture of 200 pM myeloperoxidase and 40 nM H2O2 (Sigma #349887) to 100 nL inhibitor in 100% DMSO in a 384 well Perkin Elmer Optiplate. Enzyme and compound were preincubated for ten minutes at rt.
After the ten minute preincubation, 25 μL of an Amplex Red mixture containing 200 μM Amplex Red and 10 mM H2O2 was added to the plate. Kinetic determinations were carried out immediately on a Perkin Elmer Envision (15 minute kinetic read, Ex: 535 nm, Em: 590 nm).
IC50 values were calculated by determining the slope of the linear portion of the kinetic trace (180-540 secs), and using that calculated slope to determine % inhibition occurring at each concentration of inhibitor using the following equation:
[formula] where A=minimal Y value (activity level of inhibited sample), B=maximal Y value (activity level of uninhibited sample), C=Log IC50, D=Hill Slope, x=concentration of inhibitor. MPO Chlorination Assay

Test [2] concerns the target T1, myeloperoxidase (MPO). As to the kind of experiment: MPO chlorination assay (APF). Type of test: biochemical. In a few lines: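 Human MPO (200 pM) with 120 mM NaCl preincubated with inhibitor 10 minutes at rt in 100 mM KPi pH 7.4. Reaction started with APF mixture containing 10 μM H2O2; fluorescein fluorescence (ex 485/em 535 nm) read kinetically 3 minutes. IC50 from slopes of linear kinetic portion, fitted with a four-parameter Hill equation.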

The mark [3] stands for this setting: MPO chlorination assay (APF), Table 1, read-out: APF IC50.
The mark [4] stands for this setting: MPO chlorination assay, ranges given, read-out: MPO chlorination assay IC50.

T1 sequence (P05164 49-745): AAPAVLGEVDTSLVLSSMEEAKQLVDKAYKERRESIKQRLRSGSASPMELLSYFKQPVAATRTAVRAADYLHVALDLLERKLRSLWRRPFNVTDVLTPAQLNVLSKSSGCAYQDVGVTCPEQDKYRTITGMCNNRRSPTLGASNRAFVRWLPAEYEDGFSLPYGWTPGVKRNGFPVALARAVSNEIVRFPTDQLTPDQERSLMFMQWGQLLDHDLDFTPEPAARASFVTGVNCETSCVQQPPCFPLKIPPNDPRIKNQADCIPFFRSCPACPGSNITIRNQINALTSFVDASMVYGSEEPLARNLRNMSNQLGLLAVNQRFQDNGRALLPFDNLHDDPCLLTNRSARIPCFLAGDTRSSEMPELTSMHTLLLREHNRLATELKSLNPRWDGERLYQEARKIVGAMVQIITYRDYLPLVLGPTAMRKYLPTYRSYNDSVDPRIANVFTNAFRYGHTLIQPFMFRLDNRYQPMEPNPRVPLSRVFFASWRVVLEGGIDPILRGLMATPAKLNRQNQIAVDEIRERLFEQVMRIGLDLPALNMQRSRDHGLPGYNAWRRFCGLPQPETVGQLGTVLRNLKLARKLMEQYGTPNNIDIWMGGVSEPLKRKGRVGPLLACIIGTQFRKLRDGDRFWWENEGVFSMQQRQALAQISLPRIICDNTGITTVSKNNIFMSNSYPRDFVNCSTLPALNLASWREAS

What is called IC50 is the midpoint of a concentration-inhibition curve. For the compound `Nc1cc(SCc2ccccc2F)c2nn[nH]c2n1` [Example 3, 7-((2-fluorobenzyl)thio)-3H-[1,2,3]triazolo [4,5-b]pyridin-5-amine], the IC50 in test [1] amounted to 7 nM; in test [2] (setting [3]), 10 nM.
Taken in the same sequence, the figures for `Nc1cc(SCc2cc(F)c(-c3ncon3)cc2F)c2nn[nH]c2n1` [Example 28, 7-((2,5-difluoro-4-(1,2,4-oxadiazol-3-yl)benzyl)thio)-3H-[1,2,3]triazolo[4,5-b] pyridin-5-amine] were 10 nM and 80 nM.
For `Nc1cc(SCc2cc(C(F)(F)F)ccc2C(F)(F)F)c2nn[nH]c2n1` [Example 39, 7-((2,5-bis(trifluoromethyl)benzyl)thio)-3H-[1,2,3] triazolo[4,5-b]pyridin-5-amine], the 50% inhibitory concentration (IC50) in test [1] is 10 nM; in test [2] (setting [3]), 20 nM.
In the case of `Nc1cc(SCc2ccccc2-n2cccn2)c2nn[nH]c2n1` [Example 41, 7-((2-(1H-pyrazol-1-yl)benzyl)thio)-3H-[1,2,3] triazolo[4,5-b]pyridin-5-amine], the results for the IC50 in test [1] and in test [2] (setting [3]) were 20 nM and 80 nM, respectively.
Take `CCC(Sc1cc(N)nc2[nH]nnc12)c1ccccc1` (stereo not drawn) [Example 45, 7-((1-phenylpropyl)thio)-3H-[1,2,3]triazolo[4,5-b] pyridin-5-amine]: the half-inhibitory concentration (IC50) in test [1] was determined as 20 nM; in test [2] (setting [3]), 80 nM.
On the same counts, the results for `Nc1cc(SCc2ncccn2)c2nn[nH]c2n1` [Example 57, 7-((pyrimidin-2-ylmethyl)thio)-3H-[1,2,3]triazolo[4,5-b]pyridin-5-amine] are 100 nM and 500 nM.
For `Nc1cc(SCc2cc(F)ccc2OC(F)(F)F)c2nn[nH]c2n1` [Example 66, 7-((5-fluoro-2-(trifluoromethoxy)benzyl)thio)-3H-[1,2,3]triazolo[4,5-b]pyridin-5-amine], the IC50 is 10 nM in test [1] and 20 nM in test [2] (setting [3]).
In the case of `CCOC(=O)c1cc(CSc2cc(N)nc3[nH]nnc23)n(C)n1` [Example 70, ethyl 5-(((5-amino-3H-[1,2,3]triazolo[4,5-b]pyridin-7-yl)thio)methyl)-1-methyl-1H-pyrazole-3-carboxylate], the IC50 in test [1] amounted to 50 nM; in test [2] (setting [3]), 760 nM.
Taken in the same sequence, the figures for `Cc1nn(-c2ccc(F)cc2)c(C)c1CSc1cc(N)nc2[nH]nnc12` [Example 72, 7-(((1-(4-fluorophenyl)-3,5-dimethyl-1H-pyrazol-4-yl)methyl)thio)-3H-[1,2,3] triazolo[4,5-b]pyridin-5-amine] were 460 nM and 580 nM.
Taken in the same sequence, the figures for `Cc1ncn(C)c1CSc1cc(N)nc2[nH]nnc12` [Example 77, 7-(((1,4-dimethyl-1H-imidazol-5-yl)methyl)thio)-3H-[1,2,3]triazolo[4,5-b] pyridin-5-amine] were 140 nM and 610 nM.
Taken in the same sequence, the figures for `Cc1nn(-c2ccccc2)c(Cl)c1CSc1cc(N)nc2[nH]nnc12` [Example 79, 7-(((5-chloro-3-methyl-1-phenyl-1H-pyrazol-4-yl)methyl)thio)-3H-[1,2,3] triazolo[4,5-b]pyridin-5-amine] were 30 nM and 7 nM.
As to `N#Cc1ccc(C2CC2)c(CSc2cc(N)nc3[nH]nnc23)c1` [Example 88, 3-(((5-amino-3H-[1,2,3]triazolo[4,5-b]pyridin-7-yl)thio)methyl)-4-cyclopropylbenzonitrile], the IC50 in test [1] is 30 nM; in test [2] (setting [3]), 9 nM.
On the same counts, the results for `Nc1cc(SCc2ccccc2CN2CCC(Oc3ccccc3)C2)c2nn[nH]c2n1` (stereo not drawn) [Example 98, 7-((2-((3-phenoxypyrrolidin-1-yl)methyl)benzyl)thio)-3H-[1,2,3]triazolo[4,5-b] pyridin-5-amine] are 530 nM and 640 nM.
In the case of `Nc1cc(SCc2cn(-c3cnc(C(=O)N4CCC4)cn3)nc2C(F)F)c2nn[nH]c2n1` [Example 146], in test [2] (setting [4]), the IC50 lay within 200 to 1000 nM.
Same read-out and setting: to `N#Cc1cn(-c2ccccc2)nc1CSc1cc(N)nc2[nH]nnc12` [Example 147, 3-(((5-amino-3H-[1,2,3]triazolo[4,5-b]pyridin-7-yl)thio)methyl)-1-phenyl-1H-pyrazol-4-carbonitrile] belongs 200 to 1000 nM; to `CN(C)Cc1cccc(-n2cc(CSc3cc(N)nc4[nH]nnc34)c(C(F)F)n2)c1` [Example 148, 7-(((3-(difluoromethyl)-1-(3-((dimethylamino)methyl)phenyl)-1H-pyrazol-4-yl)methyl)thio)-3H-[1,2,3]triazolo [4,5-b]pyridin-5-amine], ≤ 60 nM; to `CN(C)CCNC(=O)c1cccc(-n2cc(CSc3cc(N)nc4[nH]nnc34)c(C(F)F)n2)c1` [Example 149, 3-(4-(((5-amino-3H-[1,2,3]triazolo[4,5-b]pyridin-7-yl)thio)methyl)-3-(difluoromethyl)-1H-pyrazol-1-yl)-N-(2-(dimethylamino)ethyl) benzamide], 60 to 200 nM.
With `CN(C)Cc1ccccc1-n1cc(CSc2cc(N)nc3[nH]nnc23)c(C(F)F)n1` [Example 150, 7-(((3-(difluoromethyl)-1-(2-((dimethylamino)methyl)phenyl)-1H-pyrazol-4-yl)methyl)thio)-3H-[1,2,3]triazolo [4,5-b]pyridin-5-amine], the IC50 in test [2] (setting [4]) is ≤ 60 nM.
With `CN(C)CCNC(=O)c1ccccc1-n1cc(CSc2cc(N)nc3[nH]nnc23)c(C(F)F)n1` [Example 151, 2-(4-(((5-amino-3H-[1,2,3]triazolo[4,5-b]pyridin-7-yl)thio)methyl)-3-(difluoromethyl)-1H-pyrazol-1-yl)-N-(2-(dimethylamino)ethyl) benzamide], in test [2] (setting [4]), the IC50 was ≤ 60 nM.
For `Nc1cc(SCc2cn(-c3cnccn3)nc2C(F)F)c2nn[nH]c2n1` [Example 152, 7-(((3-(difluoromethyl)-1-(pyrazin-2-yl)-1H-pyrazol-4-yl)methyl)thio)-3H-[1,2,3]triazolo [4,5-b]pyridin-5-amine], the IC50 in test [2] is 200 to 1000 nM.
On to `Nc1cc(SCc2nn(-c3ccccc3)nc2C(F)F)c2nn[nH]c2n1` [Example 153, 7-(((5-(difluoromethyl)-2-phenyl-2H-1,2,3-triazol-4-yl)methyl)thio)-3H-[1,2,3]triazolo [4,5-b]pyridin-5-amine], for which the IC50 in test [2] was in the range of 60 to 200 nM.
With `N#Cc1cccc(F)c1CSc1nc(N)nc2[nH]nnc12` [Example 154, 2-(((5-Amino-3H-[1,2,3]triazolo[4,5-d]pyrimidin-7-yl)thio)methyl)-3-fluorobenzonitrile], in test [2] (setting [4]), the IC50 lay in the range of 60 to 200 nM.
With `Nc1nc(SCc2ccccc2)c2nn[nH]c2n1` [Example 155, 7-(benzylthio)-3H-[1,2,3] triazolo[4,5-d]pyrimidin-5-amine], the IC50 in test [2] (setting [4]) was in the range of 60 to 200 nM.
The same measure, in the same setting: to `Cc1nn(-c2ccccc2)c(Cl)c1CSc1nc(N)nc2[nH]nnc12` [Example 156, 7-(((5-chloro-3-methyl-1-phenyl-1H-pyrazol-4-yl)methyl)thio)-3H-[1,2,3] triazolo[4,5-b]pyrimidin-5-amine] belongs 60 to 200 nM; to `N#Cc1ccc(F)cc1CSc1nc(N)nc2[nH]nnc12` [Example 157, 2-(((5-amino-3H-[1,2,3]triazolo[4,5-d]pyrimidin-7-yl)thio)methyl)-4-fluorobenzonitrile], 200 to 1000 nM; to `Nc1nc(SCc2ccccc2-n2cccn2)c2nn[nH]c2n1` [Example 158, 7-((2-(1H-pyrazol-1-yl)benzyl)thio)-3H-[1,2,3] triazolo[4,5-d]pyrimidin-5-amine], 200 to 1000 nM.
Still for that read-out and setting: to `Cc1nn(Cc2ccccc2)c(Cl)c1CSc1nc(N)nc2[nH]nnc12` [Example 159, 7-(((1-benzyl-5-chloro-3-methyl-1H-pyrazol-4-yl)methyl)thio)-3H-[1,2,3] triazolo[4,5-d]pyrimidin-5-amine] belongs 200 to 1000 nM; to `Cn1nc(C(F)(F)F)c(CSc2nc(N)nc3[nH]nnc23)c1F` [Example 160, 7-(((5-fluoro-1-methyl-3-(trifluoromethyl)-1H-pyrazol-4-yl)methyl)thio)-3H-[1,2,3]triazolo[4,5-d] pyrimidin-5-amine], 200 to 1000 nM; to `N#Cc1ccc(C2CC2)c(CSc2nc(N)nc3[nH]nnc23)c1` [Example 161, 3-(((5-amino-3H-[1,2,3]triazolo[4,5-d]pyrimidin-7-yl)thio)methyl)-4-cyclopropylbenzonitrile], 200 to 1000 nM.
On the same count and under the same terms, to `Cn1ncc2c(CSc3nc(N)nc4[nH]nnc34)cccc21` [Example 162, 7-(((1-methyl-1H-indazol-4-yl)methyl)thio)-3H-[1,2,3]triazolo[4,5-d] pyrimidin-5-amine] belongs 200 to 1000 nM.
On to `Cn1ncc(CSc2nc(N)nc3[nH]nnc23)c1C(F)(F)F` [Example 163, 7-(((1-methyl-5-(trifluoromethyl)-1H-pyrazol-4-yl)methyl)thio)-3H-[1,2,3]triazolo[4,5-d] pyrimidin-5-amine], for which the IC50 in test [2] (setting [4]) is 200 to 1000 nM.
For `Cn1nc(C2CC2)cc1CSc1nc(N)nc2[nH]nnc12` [Example 165, 7-(((3-cyclopropyl-1-methyl-1H-pyrazol-5-yl)methyl)thio)-3H-[1,2,3] triazolo[4,5-d]pyrimidin-5-amine], the IC50 in test [2] (setting [4]) lay within 200 to 1000 nM.
